Experimental data taken from PubChem BioAssay AID1199 (EPA DSSTox, 2008).
Activity calls are given as the source filed them.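 The calls were made as follows: active = a tumour-causing dose and a tumour site recorded for mice in at least one sex group; inconclusive = only government mouse studies exist and were judged inadequate; inactive = mouse studies exist but none gave tumours.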

These compounds were tested on mouse carcinogenicity bioassay, TD50 from CPDB (assay: DSSTox (CPDBAS) Carcinogenic Potency Database Summary Mouse Bioassay Results). Settings: not given.
Procedure, shortened: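 Chronic long-term mouse cancer bioassays from literature and NCI/NTP, compiled per sex. TD50 is the standardized carcinogenic potency, using the most positive experiment per sex-species; target sites follow author opinion.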
`c1ccc2c(c1)ccc1cc3c(ccc4ccccc43)cc12` showed a Potency of 0.0211 mmol/kg/day.

Same assay, conditions: TD50_Mouse_Note: TD50 is harmonic mean of more than one positive test; TargetSites_Mouse_Female: esophagus; liver; lung; nasal cavity; oral cavity; stomach
With `O=NN1CCCCCC1` the Potency was 0.00412 mmol/kg/day.

Same assay, conditions: TD50_Mouse_Note: TD50 is harmonic mean of more than one positive test; TargetSites_Mouse_Female: harderian gland; liver; oral cavity; stomach; uterus
Work on `ClCC(Cl)CCl` yielded a Potency of 0.00593 mmol/kg/day.

Same assay, conditions: TD50_Mouse_Note: TD50 is harmonic mean of more than one positive test; TargetSites_Mouse_Female: harderian gland; lung; mammary gland; vascular system
`C=CF` gave a Potency of 0.176 mmol/kg/day.

Same assay, conditions: TD50_Mouse_Note: TD50 is harmonic mean of more than one positive test; TargetSites_Mouse_Female: harderian gland; stomach
In the case of `C=C(C)CCl`, the Potency is reported as 11 mmol/kg/day. `C=CC#N` showed a Potency of 0.119 mmol/kg/day.

Same assay, conditions: TD50_Mouse_Note: TD50 is harmonic mean of more than one positive test; TargetSites_Mouse_Female: hematopoietic system
With `O=C1C=CC(=O)C=C1` the Potency was 0.0469 mmol/kg/day.

Same assay, conditions: TD50_Mouse_Note: TD50 is harmonic mean of more than one positive test; TargetSites_Mouse_Female: liver
Work on `Nc1ccccc1N` yielded a Potency of 4.06 mmol/kg/day. In the case of `Nc1cc(S(=O)(=O)[O-])cc2cc(S(=O)(=O)[O-])c(N=Nc3ccc(-c4ccc(N=Nc5c(S(=O)(=O)[O-])cc6cc(S(=O)(=O)[O-])cc(N)c6c5O)c(O)c4)cc3O)c(O)c12.[Cu].[Cu].[Na+].[Na+].[Na+].[Na+]`, the Potency is reported as 0.788 mmol/kg/day. In the case of `Cc1c([N+](=O)[O-])c(C)c([N+](=O)[O-])c(C(C)(C)C)c1[N+](=O)[O-]`, the Potency is reported as 0.427 mmol/kg/day. `Nc1ncn[nH]1` gave a Potency of 0.301 mmol/kg/day. `Nc1ccc(-c2ccc(F)cc2)cc1` showed a Potency of 0.00609 mmol/kg/day. Work on `CC(C)(CCCOc1ccc(OCCCC(C)(C)C(=O)O)c(-c2ccccc2)c1)C(=O)O` yielded a Potency of 0.125 mmol/kg/day.

Same assay, conditions: TD50_Mouse_Note: TD50 is harmonic mean of more than one positive test; TargetSites_Mouse_Female: liver; vascular system
In the case of `Cc1ccc(Cl)cc1N`, the Potency is reported as 1.38 mmol/kg/day.

Same assay, conditions: TD50_Mouse_Note: TD50 is harmonic mean of more than one positive test; TargetSites_Mouse_Female: lung
`CC(C)CON=O` gave a Potency of 3.01 mmol/kg/day. `N#[N+]c1ccccc1` gave a Potency of 0.0712 mmol/kg/day.

Same assay, conditions: TD50_Mouse_Note: TD50 is harmonic mean of more than one positive test; TargetSites_Mouse_Female: lung; vascular system
Work on `CN(C)NC(=O)CCC(=O)O` yielded a Potency of 6.43 mmol/kg/day.

Same assay, conditions: TD50_Mouse_Note: TD50 is harmonic mean of more than one positive test; TargetSites_Mouse_Female: mammary gland
Compound `COC(=O)[C@H]1[C@H]2C[C@@H]3c4[nH]c5cc(OC)ccc5c4CCN3C[C@H]2C[C@@H](OC(=O)c2cc(OC)c(OC)c(OC)c2)[C@@H]1OC` has a Potency of 0.00825 mmol/kg/day.

Same assay, conditions: TD50_Mouse_Note: TD50 is harmonic mean of more than one positive test; TargetSites_Mouse_Female: stomach
`OCCBr` showed a Potency of 0.609 mmol/kg/day. For `C=C(C)CCl`, the Potency was 0.858 mmol/kg/day. Compound `O=Cc1ccccc1` has a Potency of 14 mmol/kg/day. `COP(=O)(OC)OC=C(Cl)Cl` was tested, and the Potency was 0.319 mmol/kg/day.

Same assay, conditions: TD50_Mouse_Note: TD50 is harmonic mean of more than one positive test; TargetSites_Mouse_Female: thyroid gland
Work on `COc1ccc(N)cc1N` yielded a Potency of 3.83 mmol/kg/day.

Same assay, conditions: TD50_Mouse_Note: TD50 is harmonic mean of more than one positive test; TargetSites_Mouse_Female: urinary bladder
`COc1ccccc1N` showed a Potency of 6.05 mmol/kg/day.

Same assay, conditions: TD50_Mouse_Note: TD50 is harmonic mean of more than one positive test; TargetSites_Mouse_Female: vagina
With `Cc1cn([C@H]2C[C@H](N=[N+]=[N-])[C@@H](CO)O2)c(=O)[nH]c1=O` the Potency was 1.11 mmol/kg/day.

Same assay, conditions: TD50_Mouse_Note: TD50 is harmonic mean of more than one positive test; greater than ten-fold variation among TD50 values for positive res; TargetSites_Mouse_Female: stomach
With `NC(=O)/C(=C\c1ccc([N+](=O)[O-])o1)c1ccco1` the Potency was 0.528 mmol/kg/day.

Same assay, conditions: TD50_Mouse_Note: TD50 is harmonic mean of more than one positive test; greater than ten-fold variation among TD50 values for positive res; TargetSites_Mouse_Female: urinary bladder
`O=c1cc[nH]c(=O)[nH]1` showed a Potency of 24.5 mmol/kg/day.

Same assay, conditions: TD50_Mouse_Note: TD50 is harmonic mean of more than one positive test; harmonic mean of TD50 includes a value for upper 99% confidence li; TargetSites_Mouse_Female: liver
In the case of `CC(N)=S`, the Potency is reported as 0.117 mmol/kg/day. With `ClC1=C(Cl)[C@]2(Cl)[C@@H]3[C@@H]4C[C@@H]([C@H]5O[C@@H]45)[C@@H]3[C@@]1(Cl)C2(Cl)Cl` the Potency was 0.00239 mmol/kg/day. `CCC1(c2ccccc2)C(=O)N=C(O)NC1=O` (stereo not given) gave a Potency of 0.117 mmol/kg/day.

Same assay, conditions: TD50_Mouse_Note: TD50 is harmonic mean of more than one positive test; harmonic mean of TD50 includes a value for upper 99% confidence li; TargetSites_Mouse_Female: lung; vascular system
Compound `CNNC` has a Potency of 0.000857 mmol/kg/day.

Same assay, conditions: TD50_Mouse_Note: TD50 value is overestimated as upper 99% confidence limit from study with 100% tumor incidence but no lifetable; harmoni
`Cc1cccc(Nc2cc(Cl)nc(SCC(=O)O)n2)c1C` showed a Potency of 0.0334 mmol/kg/day.

Same assay, conditions: TD50_Mouse_Note: no positive results
`CC1=C[C@H]2O[C@@H]3[C@H](O)C[C@@](C)(C34CO4)[C@@]2(CO)[C@H](O)C1=O` (stereo not given in full) was tested, and the outcome was “inactive; no positive results”. For `[Cl-].[Hg+]`, the outcome was “inactive; no positive results”.

Same assay, conditions: TD50_Mouse_Note: no positive results are statistically significant
For `Nc1ccc(-c2ccc(N)c(O)c2)cc1O`, the Potency was 1.22 mmol/kg/day.

Same assay, conditions: TD50_Mouse_Note: no positive results; TargetSites_Mouse_Female: no positive results
For `CC(/C=C/C=C(\C)C(=O)O[C@@H]1O[C@H](CO[C@@H]2O[C@H](CO)[C@@H](O)[C@H](O)[C@H]2O)[C@@H](O)[C@H](O)[C@H]1O)=C\C=C\C=C(C)\C=C\C=C(/C)C(=O)O[C@@H]1O[C@H](CO[C@@H]2O[C@H](CO)[C@@H](O)[C@H](O)[C@H]2O)[C@@H](O)[C@H](O)[C@H]1O`, the outcome was “inactive; no positive results”. With `COP(=S)(OC)Oc1ccc([N+](=O)[O-])cc1` the outcome was “inactive; no positive results”. For `CC(C)NCC(O)c1ccc2ccccc2c1` (stereo not given), the outcome was “inactive; no positive results”. For `CN(C)CCO`, the outcome was “inactive”. In the case of `Nc1cc([N+](=O)[O-])ccc1C(=O)O`, the outcome is reported as “inactive; no positive results”. For `NC(=O)c1ccccc1C(N)=O`, the outcome was “inactive; no positive results”. In the case of `[N-]=[N+]=O`, the outcome is reported as “inactive; no positive results”. `O=S(O)S(=O)(=O)O` was tested, and the outcome was “inactive; no positive results”. With `O=S(=O)(c1ccc(Cl)cc1)c1ccc(Cl)cc1` the outcome was “inactive; no positive results”. For `CCOC(=O)CC(SP(=O)(OC)OC)C(=O)OCC` (stereo not given), the outcome was “inactive; no positive results”. With `O=[N+]([O-])c1cccc2ccccc12` the outcome was “inactive; no positive results”. For `CC(=O)C(N=Nc1ccc(-c2ccc(N=NC(C(C)=O)C(=O)Nc3ccccc3)c(Cl)c2)cc1Cl)C(=O)Nc1ccccc1` (stereo not given), the outcome was “inactive; no positive results”. For `O=S1OCC2C(CO1)C1(Cl)C(Cl)=C(Cl)C2(Cl)C1(Cl)Cl` (stereo not given), the outcome was “inactive; no positive results”. `CCN(CC)C(=S)S` was tested, and the outcome was “inactive; no positive results”. For `Cn1c(=O)c2c(ncn2C)n(C)c1=O`, the outcome was “inactive; no positive results”. In the case of `O=[N+]([O-])c1ccc(O)c([N+](=O)[O-])c1`, the outcome is reported as “inactive”. `O=S(=O)(Oc1ccc(Cl)cc1Cl)c1ccccc1` was tested, and the outcome was “inactive; no positive results”. In the case of `COc1ccc([N+](=O)[O-])cc1N=Nc1c(O)c(C(=O)Nc2cccc([N+](=O)[O-])c2)cc2ccccc12`, the outcome is reported as “inactive; no positive results”. For `CC(C)C[C@H]1C(=O)N2CCC[C@H]2[C@]2(O)O[C@](NC(=O)[C@@H]3C=C4c5cccc6[nH]c(Br)c(c56)C[C@H]4N(C)C3)(C(C)C)C(=O)N12`, the outcome was “inactive; no positive results”. In the case of `ClC1=C(Cl)C(Cl)(Cl)C(Cl)=C1Cl`, the outcome is reported as “inactive; no positive results”. In the case of `CC(=O)[O][Sn]([c]1ccccc1)([c]1ccccc1)[c]1ccccc1`, the outcome is reported as “inactive; no positive results”. In the case of `CCC(=O)C(CC(C)N(C)C)(c1ccccc1)c1ccccc1` (stereo not given), the outcome is reported as “inactive; no positive results”. With `CCN(Cc1cccc(S(=O)(=O)[O-])c1)c1ccc(C(=C2C=CC(=[N+](C)C)C=C2)c2ccc(N(CC)Cc3cccc(S(=O)(=O)O)c3)cc2)cc1` the outcome was “inactive; no positive results”. `CC1=C(/C=C/C(C)=C/C=C/C(C)=C/C=C/C=C(C)/C=C/C=C(C)/C=C/C2=C(C)CCCC2(C)C)C(C)(C)CCC1` was tested, and the outcome was “inactive; no positive results”. `O=C(Nc1ccc([N+](=O)[O-])cc1Cl)c1cc(Cl)ccc1O` was tested, and the outcome was “inactive; ntp bioassay inadequate”. With `FC(F)Cl` the outcome was “inactive; no positive results”. With `NC(=O)Cc1cccc2ccccc12` the outcome was “inactive; no positive results”. With `COc1c(Cl)c(Cl)c([N+](=O)[O-])c(Cl)c1Cl` the outcome was “inactive; no positive results”. For `CCC(Br)(CC)C(=O)NC(N)=O`, the outcome was “inactive; no positive results”. For `CCCOC(=O)C1c2cc3c(cc2CC(C)C1C(=O)OCCC)OCO3` (stereo not given), the outcome was “inactive; no positive results”. `S=C([S-])NCCNC(=S)[S-].[Mn+2]` was tested, and the outcome was “inactive; no positive results”. In the case of `O=C(O)c1[nH]n(-c2ccc(S(=O)(=O)O)cc2)c(=O)c1N=Nc1ccc(S(=O)(=O)O)cc1`, the outcome is reported as “inactive; no positive results”. With `CC(O)c1ccccc1` (stereo not given) the outcome was “inactive; no positive results”. `Cc1c(N)cccc1N` was tested, and the outcome was “inactive; no positive results”. In the case of `CC(C)Nc1nc(Cl)nc(NC(C)C)n1`, the outcome is reported as “inactive; no positive results”. `CCC[CH2][Sn]([CH2]CCC)([O]C(C)=O)[O]C(C)=O` was tested, and the outcome was “inactive; no positive results”. With `CC(C)NCC(O)c1ccc(NS(C)(=O)=O)cc1` (stereo not given) the outcome was “inactive; no positive results”. For `C=CCOC(=O)c1ccccc1C(=O)OCC=C`, the outcome was “inactive; no positive results”. In the case of `NCCCCCCCCCCC(=O)O`, the outcome is reported as “inactive; no positive results”. `Oc1ccc(Cl)cc1Cl` was tested, and the outcome was “inactive; no positive results”. With `CN(C)C(=S)[S][Bi]([S]C(=S)N(C)C)[S]C(=S)N(C)C` the outcome was “inactive; no positive results”. `CCCCOC(=O)c1ccccc1C(=O)OCc1ccccc1` was tested, and the outcome was “inactive; no positive results”. In the case of `ClC1=C(Cl)C2(Cl)C3C(Cl)OC(Cl)C3C1(Cl)C2(Cl)Cl` (stereo not given), the outcome is reported as “inactive; no positive results”. In the case of `CCCOC(=O)c1cc(O)c(O)c(O)c1`, the outcome is reported as “inactive; no positive results”. `O=C1C(Cl)=C(Cl)C(=O)C(Cl)=C1Cl` was tested, and the outcome was “inactive; no positive results”.

Same assay, conditions: TD50_Mouse_Note: only experiment is NCI/NTP bioassay inadequate; TargetSites_Mouse_Female: NTP bioassay inadequate
`CNC[C@H](O)c1ccc(O)c(O)c1` was tested, and the outcome was “ntp bioassay inadequate”.

Same assay, conditions: TargetSites_Mouse_BothSexes: no positive results
For `O=[N+]([O-])c1ccc(O)c([N+](=O)[O-])c1`, the outcome was “inactive”. With `CC(=O)C(N=Nc1ccc(Cl)cc1Cl)C(=O)Nc1ccc(-c2ccc(NC(=O)C(N=Nc3ccc(Cl)cc3Cl)C(C)=O)c(C)c2)cc1C` (stereo not given) the outcome was “inactive”.

Same assay, conditions: TargetSites_Mouse_Female: liver
Work on `O=C1CCc2ccccc2O1` yielded a Potency of 4.88 mmol/kg/day. For `CCCCC(CC)COP(=O)(OCC(CC)CCCC)OCC(CC)CCCC` (stereo not given), the Potency was 5.89 mmol/kg/day. Work on `Nc1ccc(Cc2ccc(N)c(Cl)c2)cc1Cl` yielded a Potency of 0.196 mmol/kg/day.

Same assay, conditions: TargetSites_Mouse_Female: liver; lung; stomach
Compound `CCCN(CCC)c1c([N+](=O)[O-])cc(C(F)(F)F)cc1[N+](=O)[O-]` has a Potency of 0.984 mmol/kg/day.

Same assay, conditions: TargetSites_Mouse_Female: no positive results
For `Nc1ccc(O)c(N)c1`, the Potency was 0.726 mmol/kg/day. `OCc1ccco1` was tested, and the Potency was 2.68 mmol/kg/day.

Same assay, conditions: TargetSites_Mouse_Female: thyroid gland
`CC(C)(C)O` was tested, and the Potency was 295 mmol/kg/day.
